The text below walks through data of patent US20260108527A1, “POLO LIKE KINASE 4 INHIBITORS” (ORIC Pharmaceuticals, Inc., priority 2022, published 2026).

Usually IC50 stands for the midpoint of a concentration-inhibition curve.

One experiment addresses T1, human recombinant PLK4 (Homo sapiens, UniProt O00444).
T1 construct: purchased ThermoFisher PV6396
T1 sequence (O00444 1-970): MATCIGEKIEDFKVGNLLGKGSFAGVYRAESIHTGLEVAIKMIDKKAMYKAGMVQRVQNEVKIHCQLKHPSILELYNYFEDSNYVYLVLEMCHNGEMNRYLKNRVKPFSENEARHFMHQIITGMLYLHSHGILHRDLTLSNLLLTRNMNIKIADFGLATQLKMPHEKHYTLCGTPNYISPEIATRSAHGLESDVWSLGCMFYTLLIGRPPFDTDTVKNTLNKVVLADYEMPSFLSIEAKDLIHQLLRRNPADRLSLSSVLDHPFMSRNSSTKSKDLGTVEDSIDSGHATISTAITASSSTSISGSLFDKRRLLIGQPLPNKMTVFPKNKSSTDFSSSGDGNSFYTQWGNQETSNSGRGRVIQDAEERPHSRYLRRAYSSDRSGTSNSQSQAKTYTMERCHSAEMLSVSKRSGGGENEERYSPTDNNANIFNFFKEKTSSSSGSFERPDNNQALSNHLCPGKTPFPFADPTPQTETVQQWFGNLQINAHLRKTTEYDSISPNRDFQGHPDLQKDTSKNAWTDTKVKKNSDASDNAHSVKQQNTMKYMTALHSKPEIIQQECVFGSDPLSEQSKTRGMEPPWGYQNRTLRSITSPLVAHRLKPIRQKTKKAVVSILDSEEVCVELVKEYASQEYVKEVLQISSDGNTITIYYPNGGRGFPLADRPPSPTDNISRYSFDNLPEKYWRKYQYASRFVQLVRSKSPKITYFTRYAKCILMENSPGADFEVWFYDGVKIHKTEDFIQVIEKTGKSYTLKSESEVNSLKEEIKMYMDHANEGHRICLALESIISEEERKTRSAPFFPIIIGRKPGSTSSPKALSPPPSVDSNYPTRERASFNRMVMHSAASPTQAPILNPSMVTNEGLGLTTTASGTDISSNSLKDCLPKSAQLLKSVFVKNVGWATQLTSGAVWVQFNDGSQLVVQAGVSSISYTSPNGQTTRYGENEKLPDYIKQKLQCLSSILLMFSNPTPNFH
Kind of experiment: PLK4 Biochemical Assay (ADP-Glo). The following applies: 0.5 nM PLK4, 8.0 μM ATP, 4.7 μM MBP, 6 hours at RT. Here is the method: Activity of human recombinant PLK4 (ThermoFisher, cat #PV6396) was measured by quantification of adenosine diphosphate (ADP) using the ADP-Glo Kinase Assay Kit (Promega, cat #V9102). […] 5 μL of 1.0 nM PLK4 protein in assay buffer (50 mM HEPES, pH 7.5, 0.01% Brij-35, 0.01% BSA, 10 mM MgCl2, 1 mM EGTA, 1 mM DTT) was added to the plates. Test compounds and PLK4 were incubated for 15 minutes at room temperature (RT). […] Reactions were stopped and the remaining ATP depleted by adding 10 μL of ADP-Glo reagent (Promega, cat #V912B) and incubating for 40 minutes at RT. The simultaneous conversion of the remaining ADP to ATP and measurement of the newly synthesized ATP was achieved by addition of 20 μL Kinase Detection reagent (Promega, cat #V914B), incubation for 30 min at RT, and luminescence detection using the EnVision plate reader (PerkinElmer). […] The IC50 values reported in Table 2 were determined using four parameter non-linear regression curve fit.
On the technique in general: In ADP-Glo the light output rises with the ADP produced.

For another experiment, the system named is CHP134. Nature of the experiment: CHP134 CellTiter-Glo (CTG) Assay. Type of experiment: cell-based. The following applies: Homo sapiens, CHP-134, 120 h; viable cells by CellTiter-Glo after 5 days. Here is the method: […] cells (DSMZ-German Collection of Microorganisms and Cell Cultures, Braunschweig Germany) were cultured in RPMI 1640 supplemented with 10% fetal bovine serum, penicillin (100 U/ml), 1% L-Glutamine and streptomycin ([…]). Cells were seeded (200 cells/well) in 384-well plates for 16 hours. On day two, nine serial 1:3 compound dilutions were made in DMSO in a 96-well plate. The compounds were then further diluted into growth media using a BRAVO robot (Agilent, Santa Clara, CA). The diluted compounds were then added to quadruplicate wells in the 384-well cell plate and incubated at 37° C. and 5% CO2. After 5 days, relative numbers of viable cells were measured by luminescence using CellTiter-Glo® (Promega) according to the manufacturer's instructions and read on a SPARK Multimode Microplate Reader (Tecan, Mannedorf Switzerland). The IC50 calculations for the values reported in Table 2 were carried out using Prism 6.0 software (GraphPad, San Diego).
In general terms: In ATP-based viability assays light output follows the ATP content of the culture.

The target of experiment [1] is T2, human recombinant Aurora B (Homo sapiens, UniProt Q96GD4).
T2 construct: purchased ThermoFisher PR9210B
T2 sequence (Q96GD4 whole entry): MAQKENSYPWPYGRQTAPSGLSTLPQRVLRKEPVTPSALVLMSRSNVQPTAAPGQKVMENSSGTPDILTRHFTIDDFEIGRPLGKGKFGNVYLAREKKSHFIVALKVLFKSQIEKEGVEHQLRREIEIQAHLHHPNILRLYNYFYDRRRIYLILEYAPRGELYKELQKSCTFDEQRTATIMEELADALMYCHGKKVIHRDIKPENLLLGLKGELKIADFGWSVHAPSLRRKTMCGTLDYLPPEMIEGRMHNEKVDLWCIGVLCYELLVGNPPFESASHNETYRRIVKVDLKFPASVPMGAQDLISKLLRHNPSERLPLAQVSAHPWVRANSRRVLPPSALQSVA
Kind of experiment: Aurora B Kinase Biochemical Assay (ADP-Glo). The following applies: selectivity ratio; Aurora B 10 nM, 114 μM ATP. Here is the method: Activity of human recombinant Aurora B (ThermoFisher, cat #PR9210B) was measured by quantification of adenosine diphosphate (ADP) using the ADP-Glo Kinase Assay Kit (Promega, cat #V9102). Test compounds were solubilized in dimethyl sulfoxide (DMSO) and dispensed into 384-well white polystyrene nonbinding plates (Greiner, cat #781094) using the Echo acoustic dispenser (Labcyte Inc.) in a 11-point 3-fold titration in duplicates. 5 μL of 20 nM Aurora B in assay buffer (50 mM HEPES, pH 7.5, 0.01% Brij-35, 0.01% BSA, 10 mM MgCl2, 1 mM EGTA, 1 mM DTT) was added to the plates. Test compounds and Aurora B were incubated for 15 minutes at room temperature (RT). Then 5 μL of a 228 μM adenosine triphosphate (ATP) (Promega, cat #V915B) and 9.3 μM Myelin Basic Protein (MBP) (SignalChem, cat #M42-51N) substrate solution in assay buffer was added and the reaction mixture was incubated for 2 hours at RT. The final concentration of Aurora b, ATP and MBP in the reactions were 10 nM, 114 μM and 4.7 μM, respectively. Reactions were stopped and the remaining ATP depleted by adding 10 μL of ADP-Glo reagent (Promega, cat #V912B) and incubating for 40 minutes at RT. The simultaneous conversion of the remaining ADP to ATP and measurement of the newly synthesized ATP was achieved by addition of 20 μL Kinase Detection reagent (Promega, cat #V9141B), incubation for 30 min at RT, and luminescence detection using the EnVision plate reader (PerkinElmer). Reactions lacking Aurora B were used as […]. Reactions containing DMSO alone were used as […]. The IC50 values reported in Table 2 were determined using four parameter non-linear regression curve fit.

In experiment [2] the target is T3, human recombinant Aurora A (Homo sapiens, UniProt O14965).
T3 construct: purchased ThermoFisher PR5935A
T3 sequence (O14965 1-403): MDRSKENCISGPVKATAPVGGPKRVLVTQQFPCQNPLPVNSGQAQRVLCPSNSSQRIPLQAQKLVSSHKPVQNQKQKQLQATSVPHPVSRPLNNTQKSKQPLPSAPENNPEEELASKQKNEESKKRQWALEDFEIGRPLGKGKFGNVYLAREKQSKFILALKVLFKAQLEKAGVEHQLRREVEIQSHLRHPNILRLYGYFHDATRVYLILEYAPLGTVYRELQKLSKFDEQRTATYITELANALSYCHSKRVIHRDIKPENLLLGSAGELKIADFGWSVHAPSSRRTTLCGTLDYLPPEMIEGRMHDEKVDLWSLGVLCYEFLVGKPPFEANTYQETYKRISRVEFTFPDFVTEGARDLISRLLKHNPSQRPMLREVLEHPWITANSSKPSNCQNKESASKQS
Nature of the experiment: Aurora A Kinase Biochemical Assay (ADP-Glo). The following applies: selectivity ratio; Aurora A 2.5 nM, 20 μM ATP. Here is the method: Activity of human recombinant Aurora A (ThermoFisher, cat #PR5935A) was measured by quantification of adenosine diphosphate (ADP) using the ADP-Glo Kinase Assay Kit (Promega, cat #V9102). Test compounds were solubilized in dimethyl sulfoxide (DMSO) and dispensed into 384-well white polystyrene nonbinding plates (Greiner, cat #781094) using the Echo acoustic dispenser (Labcyte Inc.) in a 11-point 3-fold titration in duplicates. 5 μL of 5.0 nM Aurora A in assay buffer (50 mM HEPES, pH 7.5, 0.01% Brij-35, 0.01% BSA, 10 mM MgCl2, 1 mM EGTA, 1 mM DTT) was added to the plates. Test compounds and Aurora A were incubated for 15 minutes at room temperature (RT). Then 5 μL of a 40 μM adenosine triphosphate (ATP) (Promega, cat #V915B) and 9.3 μM Myelin Basic Protein (MBP) (SignalChem, cat #M42-51N) substrate solution in assay buffer was added and the reaction mixture was incubated for 2 hours at RT. The final concentration of Aurora A, ATP and MBP in the reactions were 2.5 nM, 20 μM and 4.7 μM, respectively. Reactions were stopped and the remaining ATP depleted by adding 10 μL of ADP-Glo reagent (Promega, cat #V912B) and incubating for 40 minutes at RT. The simultaneous conversion of the remaining ADP to ATP and measurement of the newly synthesized ATP was achieved by addition of 20 μL Kinase Detection reagent (Promega, cat #V914B), incubation for 30 min at RT, and luminescence detection using the EnVision plate reader (PerkinElmer). Reactions lacking Aurora A were used as 100% inhibition controls. Reactions containing DMSO alone were used as 0% inhibition controls. The IC50 values reported in Table 2 were determined using four parameter non-linear regression curve fit.

For `COc1ccc2c(c1)[C@]1(C[C@H]1c1ccc3c(Nc4ccc(C5(N(C)C)COC5)cc4OC)n[nH]c3c1)C(=O)N2` [Example 9, (1R,2S)-2-(3-{4-[3-(dimethylamino)oxetan-3-yl]-2-methoxyanilino}-1H-indazol-6-yl)-5′-methoxyspiro[cyclopropane-1,3′-indol]-2′(1′H)-one], the IC50 at human recombinant PLK4 turned out to be 0.862 nM; in the experiment with CHP134, 166 nM.

For the compound `COc1ccc2c(c1)[C@]1(C[C@H]1c1ccc3c(Nc4nc(-c5cncnc5)ncc4OC)n[nH]c3c1)C(=O)N2` [Example 25, (1R,2S)-5′-methoxy-2-{3-[(5-methoxy[2,5′-bipyrimidin]-4-yl)amino]-1H-indazol-6-yl}spiro[cyclopropane-1,3′-indol]-2′(1′H)-one], in experiment [1], the “[Aurora B IC50 (nM)]/[PLK4 IC50 (nM)]” value was 608.5512. Further, at human recombinant PLK4, the 50% inhibitory concentration (IC50) turned out to be 2.41 nM. For the same compound, the “[Aurora A IC50 (nM)]/[PLK4 IC50 (nM)]” value in experiment [2] came out at 934.8277.

On to `COc1ccc2c(c1)[C@]1(C[C@H]1c1ccc3c(Nc4cc(-c5cn(C)nc5OC)ccc4OC)n[nH]c3c1)C(=O)N2` [Example 36, (1R,2S)-5′-methoxy-2-{3-[2-methoxy-5-(3-methoxy-1-methyl-1H-pyrazol-4-yl)anilino]-1H-indazol-6-yl}spiro[cyclopropane-1,3′-indol]-2′(1′H)-one], for which the “[Aurora B IC50 (nM)]/[PLK4 IC50 (nM)]” value in experiment [1] is recorded as 12202.7972. For the same compound, the IC50 at human recombinant PLK4 is 2.29 nM. Moreover, in experiment [2], the “[Aurora A IC50 (nM)]/[PLK4 IC50 (nM)]” value is recorded as 4350.9615.
